# Activity calls are given as the source filed them.
# Key:
# [1] = cells; format: functional
# [2] = molecular target: Cytochrome P450 2C9 (Homo sapiens, UniProt P11712)
# [3] = Luminescence Cell-Based Dose Retest to Confirm Inhibitors of Cancer Stem Cells. [Related pubchem assays (depositor defined):AID2717, AID2721]; format: functional; details: Homo sapiens
# [4] = microbe, parasite or virus in culture; format: functional; details: Mycobacterium tuberculosis
# [5] = molecular target: T1, Leucine aminopeptidase (Plasmodium falciparum 3D7, UniProt Q8IL11); assay: P. falciparum M17LAP inhibitors, primary screen, biochemical, fluorogenic H-Leu-NHMec substrate, 1536-well (AID 1619); format: functional
# T1 sequence (Q8IL11 whole entry): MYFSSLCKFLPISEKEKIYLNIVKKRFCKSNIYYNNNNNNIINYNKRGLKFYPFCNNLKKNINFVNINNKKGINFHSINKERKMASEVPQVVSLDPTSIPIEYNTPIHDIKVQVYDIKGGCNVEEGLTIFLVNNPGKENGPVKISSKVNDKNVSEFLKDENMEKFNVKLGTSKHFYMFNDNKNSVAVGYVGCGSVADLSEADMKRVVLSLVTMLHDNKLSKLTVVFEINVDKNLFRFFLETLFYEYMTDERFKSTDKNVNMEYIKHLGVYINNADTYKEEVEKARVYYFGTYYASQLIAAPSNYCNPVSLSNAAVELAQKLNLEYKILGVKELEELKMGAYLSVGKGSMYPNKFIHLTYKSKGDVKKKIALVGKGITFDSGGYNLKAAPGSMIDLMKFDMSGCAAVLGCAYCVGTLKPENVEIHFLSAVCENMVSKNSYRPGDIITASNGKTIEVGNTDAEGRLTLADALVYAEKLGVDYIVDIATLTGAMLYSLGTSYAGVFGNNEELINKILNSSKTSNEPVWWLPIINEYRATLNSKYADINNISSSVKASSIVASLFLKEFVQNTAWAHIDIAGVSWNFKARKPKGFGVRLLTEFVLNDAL
# [6] = molecular target: Luciferin 4-monooxygenase (Photinus pyralis, UniProt P08659); assay: inhibition of purified Photinus pyralis luciferase – biochemical, luminescence, dose response (AID 1891)
# Luciferin 4-monooxygenase, sequence (P08659 whole entry): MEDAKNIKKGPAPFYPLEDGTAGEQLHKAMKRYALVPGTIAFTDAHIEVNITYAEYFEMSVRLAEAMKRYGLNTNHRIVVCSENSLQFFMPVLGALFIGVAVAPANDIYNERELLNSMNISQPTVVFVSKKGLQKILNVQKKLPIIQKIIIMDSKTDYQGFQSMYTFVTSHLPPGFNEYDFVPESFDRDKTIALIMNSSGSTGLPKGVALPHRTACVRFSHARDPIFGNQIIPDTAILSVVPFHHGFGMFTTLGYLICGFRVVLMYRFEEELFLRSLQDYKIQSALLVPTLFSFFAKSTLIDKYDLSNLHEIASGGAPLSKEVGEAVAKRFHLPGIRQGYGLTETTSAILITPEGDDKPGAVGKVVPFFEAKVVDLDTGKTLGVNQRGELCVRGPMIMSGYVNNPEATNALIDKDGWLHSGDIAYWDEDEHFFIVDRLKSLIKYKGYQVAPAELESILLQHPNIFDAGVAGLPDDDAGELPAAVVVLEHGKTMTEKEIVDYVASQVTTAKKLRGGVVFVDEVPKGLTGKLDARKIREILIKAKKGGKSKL
# [7] = NIH-3T3 fibroblast cytotoxicity, dose response, cytotoxicity control, cell-based, fluorescence, Alamar Blue, secondary assay (AID 2327); format: functional;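 note: NIH-3T3 mouse fibroblasts cultured with fluconazole at 8 µg/mL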
# [8] = Luminescence Cell-Based Dose Confirmation HTS to Identify Inhibitors of Platelet Dense Granule Release. [Related pubchem assays: 1663 (Primary HTS), 1678 (Summary of Project)]; format: functional
# [9] = molecular target: T2, Cytochrome P450 1A2 (Homo sapiens, UniProt P05177);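 note: PubChem cytochrome P450 panel assay, CYP1A2 panel member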
# T2 sequence (P05177 whole entry): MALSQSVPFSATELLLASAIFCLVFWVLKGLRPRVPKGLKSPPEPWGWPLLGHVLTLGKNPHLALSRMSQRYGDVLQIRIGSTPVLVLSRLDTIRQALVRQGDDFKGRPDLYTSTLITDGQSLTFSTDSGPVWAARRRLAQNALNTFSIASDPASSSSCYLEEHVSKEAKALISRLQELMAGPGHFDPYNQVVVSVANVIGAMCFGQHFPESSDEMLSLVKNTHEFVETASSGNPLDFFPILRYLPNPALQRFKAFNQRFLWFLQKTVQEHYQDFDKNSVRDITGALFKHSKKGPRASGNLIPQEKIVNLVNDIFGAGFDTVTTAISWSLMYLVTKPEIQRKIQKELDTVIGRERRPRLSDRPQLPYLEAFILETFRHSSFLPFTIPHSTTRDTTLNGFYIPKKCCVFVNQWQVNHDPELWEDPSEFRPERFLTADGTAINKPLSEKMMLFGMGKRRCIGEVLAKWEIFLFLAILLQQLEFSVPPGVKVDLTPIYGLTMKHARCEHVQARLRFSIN
# [10] = molecular target: Cytochrome P450 2D6 (Homo sapiens, UniProt P10635);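 note: CYP2D6 member of a cytochrome P450 panel assay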
# Cytochrome P450 2D6, sequence (P10635 whole entry): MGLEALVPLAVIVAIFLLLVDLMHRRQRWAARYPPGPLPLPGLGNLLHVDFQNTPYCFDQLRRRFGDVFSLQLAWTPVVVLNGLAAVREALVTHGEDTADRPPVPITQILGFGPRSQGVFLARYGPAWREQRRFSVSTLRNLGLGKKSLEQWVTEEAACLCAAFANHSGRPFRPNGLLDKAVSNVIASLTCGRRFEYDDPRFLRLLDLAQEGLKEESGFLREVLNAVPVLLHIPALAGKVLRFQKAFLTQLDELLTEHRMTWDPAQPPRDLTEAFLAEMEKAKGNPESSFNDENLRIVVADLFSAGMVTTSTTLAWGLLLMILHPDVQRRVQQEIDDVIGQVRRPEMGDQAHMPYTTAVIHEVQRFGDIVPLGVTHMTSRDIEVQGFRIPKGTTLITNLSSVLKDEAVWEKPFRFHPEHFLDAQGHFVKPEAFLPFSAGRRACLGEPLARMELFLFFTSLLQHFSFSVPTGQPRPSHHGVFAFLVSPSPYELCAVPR
# [11] = fluconazole-exposed Candida albicans growth modulators – fluorescence, retest, confirmation (AID 2467); format: functional, cell-based
# [12] = molecular target: Cytochrome P450 2C19 (Homo sapiens, UniProt P33261); assay: Cytochrome panel assay with activity outcomes. Panel member name: p450-cyp2c19 Compounds with AC50 equal or less than 10 uM are considered active; format: functional; details: read-out: AC50
# Cytochrome P450 2C19, sequence (P33261 whole entry): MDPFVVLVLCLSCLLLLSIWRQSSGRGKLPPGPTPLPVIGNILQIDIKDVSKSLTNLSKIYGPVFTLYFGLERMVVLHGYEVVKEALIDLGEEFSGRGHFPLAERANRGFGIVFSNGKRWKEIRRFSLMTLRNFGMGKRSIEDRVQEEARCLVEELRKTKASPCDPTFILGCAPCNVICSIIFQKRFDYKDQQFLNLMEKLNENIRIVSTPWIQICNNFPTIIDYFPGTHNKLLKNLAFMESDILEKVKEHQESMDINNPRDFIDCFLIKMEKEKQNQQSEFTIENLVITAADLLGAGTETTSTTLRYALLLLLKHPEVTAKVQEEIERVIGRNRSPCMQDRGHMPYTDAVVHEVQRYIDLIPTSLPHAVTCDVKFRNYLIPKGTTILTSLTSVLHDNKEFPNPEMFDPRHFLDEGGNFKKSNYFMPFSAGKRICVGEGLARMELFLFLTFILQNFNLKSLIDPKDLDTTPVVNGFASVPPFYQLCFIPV
# [13] = test system: H9c2; assay: cells; format: functional, cell-based; details: Rattus norvegicus, H9c2, Myocardium;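 note: confirmatory concentration-response retest of ultra-high-throughput screening hits for modulation of myocardial damage; cell death induced by hydrogen peroxide oxidative stress; compound pretreatment for 60 min then peroxide exposure for 2 h; potency is for protecting the cells against peroxide damage rather than for killing them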
# [14] = molecular target: Cytochrome P450 3A4 (Homo sapiens, UniProt P08684);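 note: CYP3A4 tested as one member of a cytochrome P450 panel screen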
# Cytochrome P450 3A4, sequence (P08684 whole entry): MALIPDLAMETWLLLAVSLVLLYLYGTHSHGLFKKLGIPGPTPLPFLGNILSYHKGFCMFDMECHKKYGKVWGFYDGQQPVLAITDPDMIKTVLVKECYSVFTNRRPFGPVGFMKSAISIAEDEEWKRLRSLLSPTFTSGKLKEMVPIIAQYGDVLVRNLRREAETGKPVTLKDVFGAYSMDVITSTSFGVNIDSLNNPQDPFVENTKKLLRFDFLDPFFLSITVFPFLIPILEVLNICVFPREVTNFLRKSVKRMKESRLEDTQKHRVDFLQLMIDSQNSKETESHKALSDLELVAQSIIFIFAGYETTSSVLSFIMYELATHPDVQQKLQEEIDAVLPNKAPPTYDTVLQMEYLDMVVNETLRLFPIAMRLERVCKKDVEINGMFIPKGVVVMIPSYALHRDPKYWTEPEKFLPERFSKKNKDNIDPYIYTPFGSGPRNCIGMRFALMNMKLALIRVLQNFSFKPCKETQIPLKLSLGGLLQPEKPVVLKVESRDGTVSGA
# [15] = test system: INS1; assay: INS-1E survival protection against cytokine death – cell-based, luminescence, retest, dose response (AID 449756); format: functional; details: Rattus norvegicus;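 note: cell death triggered by IL-1 beta plus TNF-alpha plus IFN-gamma mixture; protective hits raise ATP signal compared with cytokine alone wells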
# [16] = loss of viability in HepG2 cells – cell-based, CellTiter-Glo, cherry-picked, cytotoxicity control for Shn3 inhibitor project, dose response (AID 624134); format: functional
# [17] = non-specific 3'UTR reporter inhibition in Clone20-Shn3RL – cell-based, Renilla luciferase, cherry-picked, counter-screen for Shn3 inhibitor project, dose response (AID 624133); format: functional
# [18] = reduction of Shn3 3'UTR-driven luciferase in osteoblasts – cell-based, Clone20 osteoblasts, firefly luciferase, cherry-picked, dose response (AID 624132); format: functional;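 note: firefly luciferase luminescence from reporter carrying the Shn3 3'UTR in osteoblasts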
# [19] = molecular target: T3, Protein skinhead-1 (Caenorhabditis elegans, UniProt P34707); format: functional
# T3 sequence (P34707 whole entry): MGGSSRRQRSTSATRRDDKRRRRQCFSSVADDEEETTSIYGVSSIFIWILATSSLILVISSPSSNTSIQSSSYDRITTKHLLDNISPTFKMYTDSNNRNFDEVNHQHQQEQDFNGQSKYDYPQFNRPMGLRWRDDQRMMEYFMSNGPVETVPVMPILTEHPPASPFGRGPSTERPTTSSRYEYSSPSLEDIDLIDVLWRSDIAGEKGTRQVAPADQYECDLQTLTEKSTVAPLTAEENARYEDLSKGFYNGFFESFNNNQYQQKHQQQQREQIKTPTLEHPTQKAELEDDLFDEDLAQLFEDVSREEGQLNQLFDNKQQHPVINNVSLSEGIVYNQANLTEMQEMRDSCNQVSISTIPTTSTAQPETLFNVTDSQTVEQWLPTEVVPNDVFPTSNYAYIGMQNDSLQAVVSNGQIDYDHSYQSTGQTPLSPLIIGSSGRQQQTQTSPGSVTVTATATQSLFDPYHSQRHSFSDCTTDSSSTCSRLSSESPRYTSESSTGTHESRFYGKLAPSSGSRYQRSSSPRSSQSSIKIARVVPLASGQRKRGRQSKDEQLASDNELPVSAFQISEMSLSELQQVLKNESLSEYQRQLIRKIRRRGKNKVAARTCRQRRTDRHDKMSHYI
# [20] = test system: P388/ADR; assay: cells; format: functional; details: Mus musculus
# [21] = test system: SN12K1; assay: cells; format: functional; details: Homo sapiens
# [22] = test system: P388; assay: cells; format: functional; details: Mus musculus
# [23] = blockers of HIV-1 envelope-mediated cell-cell fusion – cherry-pick, dose response (AID 652057); format: functional, cell-based
# Cytochrome P450 2C9, sequence (P11712 whole entry): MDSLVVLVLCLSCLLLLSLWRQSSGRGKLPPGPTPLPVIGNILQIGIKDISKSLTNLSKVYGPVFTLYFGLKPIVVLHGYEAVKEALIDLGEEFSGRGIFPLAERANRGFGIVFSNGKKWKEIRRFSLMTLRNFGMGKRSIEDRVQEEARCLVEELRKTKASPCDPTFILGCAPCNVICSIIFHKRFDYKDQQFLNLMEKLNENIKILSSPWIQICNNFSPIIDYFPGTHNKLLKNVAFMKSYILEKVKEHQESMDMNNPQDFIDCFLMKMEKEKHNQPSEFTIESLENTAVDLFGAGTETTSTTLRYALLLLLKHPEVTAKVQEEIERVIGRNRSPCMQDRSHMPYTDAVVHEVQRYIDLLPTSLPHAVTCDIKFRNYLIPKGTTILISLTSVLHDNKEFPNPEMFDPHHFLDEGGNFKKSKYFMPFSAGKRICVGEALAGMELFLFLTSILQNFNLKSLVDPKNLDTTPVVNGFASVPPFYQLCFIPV
structure (smiles),measurement,setting,value
CCCNC(=O)COC(=O)c1cc2c(=O)n3ccccc3nc2s1,IC50,[1],39.2 µM (active)
Cc1cc2nnc(SCC(=O)OC(C)C)n2c2ccccc12,AC50,[2],inconclusive
COc1cc(/C=C(\C#N)C(=O)NCC2CCCO2)c([N+](=O)[O-])cc1OC (configuration not stated),AC50,[2],inconclusive
CCCOc1ccc2c(c1)C(=NN=C(N)N)c1cc(OCCC)ccc1-2,AC50,[3],3.33 µM (active)
same,CC50,[4],12.2 µM (active)
Cc1cc(NS(=O)(=O)c2ccc(NC(=O)c3cnc4scc(C)n4c3=O)cc2)nc(C)n1,IC50,[5],23.1 µM (active)
CCOc1ccc(CN(C(=O)c2oc3ccccc3c2C)C2CCS(=O)(=O)C2)cc1 (configuration not stated),EC50,[6],28.3 µM (active)
same,EC50,[7],> 160 µM (inconclusive)
same,EC50,[8],> 112 µM (not active)
same,AC50,[9],14.1 µM (inconclusive)
same,AC50,[10],14.1 µM (inconclusive)
same,EC50,[11],> 38 µM (not active)
CCC(C)NC(=O)NC(=O)N(C1CCCCC1)S(C)(=O)=O (configuration not stated),AC50,[2],inconclusive
same,AC50,[12],17.8 µM (inconclusive)
CC(C)(C)NC(=O)c1cc(NC(=O)c2cccs2)cc(NC(=O)c2cccs2)c1,IC50,[13],11.1 µM (active)
C[C@H](NC(=O)c1[nH]cnc1C(=O)NCC(=O)OCc1ccccc1)C(=O)OCc1ccccc1,IC50,[13],19.4 µM (active)
COC(=O)c1cc(OC)c(OC)cc1NC(=O)c1ccc(OC)c(OC)c1,IC50,[13],> 79 µM (inactive)
COc1ccc(S(=O)(=O)N(C)CC(=O)NCc2ccco2)cc1,AC50,[14],15.8 µM (inconclusive)
same,AC50,[2],inconclusive
Clc1ccc(Cl)c(OCc2cc(-c3ccccc3Cl)on2)c1,AC50,[2],inconclusive
same,AC50,[12],0.891 µM (inconclusive)
same,AC50,[9],0.282 µM (inconclusive)
Clc1ccc(-c2[nH]ncc2N=Nc2ccccc2)cc1,CC50,[4],> 40 µM (active)
same,AC50,[15],> 120 µM (inactive)
Cc1ccc(-c2ccc(=O)n(CC(=O)NCCN3CCCCC3C)n2)cc1 (configuration not stated),AC50,[14],17.8 µM (inconclusive)
same,AC50,[2],inconclusive
same,AC50,[12],35.5 µM (inconclusive)
O=C(OCC(=O)N1CCCCC1)c1cc2ccccc2cc1O,IC50,[1],5.15 µM (active)
NC(=O)c1ccc(Nc2nnc(-c3ccc(O)cc3)c3ccccc23)cc1,IC50,[13],15 µM (active)
same,EC50,[7],> 150 µM (inactive)
same,EC50,[11],> 38 µM (not active)
CCOC(=O)Cn1c(=S)[nH]c2c(oc3ccc(Cl)cc32)c1=O,IC50,[5],19.5 µM (active)
CSc1ncc(C(=O)Nc2ccc(Br)cn2)c(C)n1,CC50,[4],> 40 µM (active)
CC1Nc2ncnc(N3CCN(c4ccccc4)CC3)c2N(Cc2ccc(Br)cc2)C1=O (configuration not stated),IC50,[13],> 79 µM (inactive)
same,CC50,[4],> 40 µM (active)
Cc1ccc(S(=O)(=O)N2CCOCC2)cc1C(=O)Nc1nc(-c2ccccn2)cs1,IC50,[13],11.3 µM (active)
same,AC50,[15],2.19 µM (active)
COc1ccc(Sc2nc3ccccc3n3c(C(F)(F)F)nnc23)cc1,AC50,[2],inconclusive
same,AC50,[12],35.5 µM (inconclusive)
same,AC50,[9],3.16 µM (inconclusive)
CCc1nc(N2CCN(C(C)=O)CC2)c2c3c(sc2n1)CC(C(C)(C)C)CC3 (configuration not stated),AC50,[16],58.6 µM (active)
same,AC50,[17],11.3 µM (active)
same,AC50,[18],6.76 µM (active)
same,CC50,[4],> 40 µM (active)
same,AC50,[15],3.36 µM (active)
O=C(NCc1cccs1)c1cc(-c2ccc(O)cc2)on1,IC50,[1],45 µM (active)
O=S(=O)(Nc1ccc(C(F)(F)F)cc1)c1c[nH]cn1,IC50,[5],28.3 µM (active)
same,IC50,[19],> 100 µM (inactive)
Cc1ccc(-n2cc(-c3ccccc3)c3c(N4CCOCC4)ncnc32)cc1,IC50,[13],> 79 µM (inactive)
CSc1nnc(NC(=O)c2cc3ccccc3oc2=O)s1,IC50,[13],> 79 µM (inactive)
CCS(=O)(=O)N1CCC(C(=O)NCc2ccccc2OC)CC1,AC50,[2],inconclusive
O=C(COC(=O)c1ccc([N+](=O)[O-])o1)Nc1ccc(N2CCOCC2)cc1,IC50,[13],> 79 µM (inactive)
COc1ccc(C2CC(c3sc(Nc4ccc(C)cc4)nc3C)=NN2)cc1 (configuration not stated),GI50,[20],4.99 µM (inactive)
same,GI50,[21],14.9 µM (inactive)
same,GI50,[22],6.79 µM (inactive)
O=NN(CCCl)C(=O)N[C@H]1CC[C@H](C(=O)O)CC1,GI50,[20],7.1 µM (inactive)
same,GI50,[21],> 100 µM (inactive)
same,GI50,[22],4.86 µM (inactive)
NC(CN(O)N=O)C(=O)O (configuration not stated),GI50,[20],8.45 µM (inactive)
same,GI50,[21],0.792 µM (active)
same,GI50,[22],16.5 µM (inactive)
C[C@@H]1CN([C@@H](C)CO)C(=O)Cc2cc(NC(=O)c3ccncc3)ccc2O[C@H]1CN(C)Cc1ccc(Cl)c(Cl)c1,AC50,[23],30.4 µM (active)
C=C1CC(OC)(C(O)C(=O)N[C@H]2OCO[C@H]3C2O[C@H](C[C@@H](COC)OC)C(C)(C)C3OC)O[C@H](C)[C@@H]1C (some centres not stated),GI50,[20],< 0.00482 µM (active)
same,GI50,[21],< 0.00482 µM (active)
same,GI50,[22],< 0.00482 µM (active)
C=C1C(=O)C[C@@]23CCC[C@@]12CC(OCOC)C3 (some centres not stated),GI50,[20],0.531 µM (active)
same,GI50,[21],1.84 µM (inactive)
same,GI50,[22],0.431 µM (active)
CN1C(=O)/C(=C/c2ccco2)S/C1=N/c1cccc(C(=O)O)c1,IC50,[5],50.6 µM (active)
FC(F)(F)c1ccc(/C=N/N2CCN(Cc3cccc4ccccc34)CC2)cc1,AC50,[2],inconclusive
same,AC50,[12],11.2 µM (inconclusive)
NC(=O)c1ncn2c1NC(=O)CC2,GI50,[20],> 100 µM (inactive)
same,GI50,[21],> 100 µM (inactive)
same,GI50,[22],> 31.6 µM (inactive)
COc1cc(NS(C)(=O)=O)ccc1Nc1c2ccccc2nc2ccccc12 [AMSACRINE],AC50,[14],20 µM (inconclusive)
same,AC50,[2],inconclusive
same,GI50,[20],0.265 µM (active)
same,GI50,[21],0.106 µM (active)
same,GI50,[22],0.0318 µM (active)
COc1cc(C[C@H]2c3cc(OC)c(OC)cc3CCN2C)c(Oc2cc3c(cc2OC)-c2c(OC)c(OC)cc4c2[C@H](C3)N(C)CC4)cc1OC [THALICARPINE],GI50,[20],8.51 µM (inactive)
same,GI50,[21],7.93 µM (inactive)
same,GI50,[22],4.24 µM (inactive)

# From ChEMBL document CHEMBL1201862, “PubChem BioAssay data set” (2004)
